Data set [1] has as its system CEM-SS cells. Kind of data set: BCECF assay, direct cytotoxicity upon uninfected CEM-SS target cells. Type of data set: cell-based, human. The settings on record: quadruplicate tests, cytotoxicity to CEM-SS, read-out: IC50 μM (± SD) BCECF. The text has this: (§1) Briefly, the procedure was as follows.
The subject of data set [2] is HIV-1. Put plainly: microbe, parasite or virus in culture. The note with it: for antiviral potency relative to calanolide A: overall of XTT and BCECF assays; for anti-HIV activity in the primary screening assay / inhibition of the cytopathic effects of HIV-1 upon CEM-SS cells: result in words; for inhibition of the cytopathic effects of HIV-1 upon CEM-SS cells: battery of interrelated assays, 6 days. The text has this: Pure compounds were initially evaluated for antiviral activity using an XTT-tetrazolium anti-HIV primary screening assay described previously (Boyd, M. R., in AIDS Etiology, Diagnosis, Treatment and Prevention (DeVita V. T., Jr., Hellman S., Rosenberg S. A., eds.), pp 305-319 (Philadelphia: Lippincott, 1988); Gustafson, K. R., et al., J. Med. Chem., 35, 1978-1986 (1992); Weislow, O. S., et al., J. Natl. Cancer Inst., 81, 577-586 (1989); Gulakowski, R. J., et al., J. Virol. Methods, 33, 87-100 (1991)). The CEM-SS human lymphocytic target cell line used in all assays was maintained in RPMI 1640 medium (Gibco, Grand Island, N.Y.), without phenol red, and was supplemented with 5% fetal bovine serum, 2 mM L-glutamine and 50 μg/ml gentamicin (complete medium). Exponentially-growing cells were pelleted and resuspended at a concentration of 2.0×10^5 cells/ml in complete medium. The Haitian variant of HIV, HTLV-IIIRF (3.54×10^6 SFU/ml), was used throughout. Frozen virus stock solutions were thawed immediately before use and resuspended in complete medium to yield […]. The appropriate amounts of the pure compounds for anti-HIV evaluations were dissolved in 100% dimethylsulfoxide (DMSO), then diluted in complete medium to the desired initial concentration (and with the final DMSO content not exceeding 1%). All serial drug dilutions, reagent additions, and plate-to-plate transfers were carried out with an automated Biomek 1000 Workstation (Beckman Instruments, Palo Alto, Calif.).
Briefly, the procedure was as follows. Uninfected CEM-SS cells were plated at a density of 1×10^4 cells in 50 μl of complete medium. Diluted HIV-1 virus was then added to appropriate wells in a volume of 50 μl to yield a multiplicity of infection of 0.6. Appropriate cell, virus and drug controls were incorporated in each experiment; the final volume in each microtiter well was 200 μl. Quadruplicate wells were used for virus-infected cells, and duplicate wells were used for uninfected cells. Plates were incubated at 37° C. in an atmosphere containing 5% CO2 for 6 days. Subsequently, aliquots of cell-free supernatant were removed from each well using the Biomek, and analyzed for reverse transcriptase activity, p24 antigen production and synthesis of infectious virions as described (Gulakowski, R. J., et al., J. Virol. Methods, 33, 87-100 (1991)). Cellular growth or viability then was estimated on the remaining contents of each well using the XTT (Weislow, O. S., et al., J. Natl. Cancer Inst., 81, 577-586 (1989)), BCECF (Rink, T. L., et al., J. Cell. Biol., 95, 189-196 (1982)) and DAPI (McCaffrey, T. A., et al., In Vitro Cell Develop. Biol., 24, 247-252 (1988)) assays as described (Gulakowski, R. J., et al., J. Virol. Methods, 33, 87-100 (1991)).
(In general: Formazan colour is commonly taken as a measure of viable cells.)

Data set [3] deals with HIV-1. The settings on record: for EC50: read-out: EC50 μM (±S.D.) RT, quadruplicate tests, supernatant reverse transcriptase.
In data set [4] the test system is HIV-1. The settings on record: for EC50: read-out: EC50 μM (±S.D.) SFU, quadruplicate tests, supernatant syncytium-forming units.
Data set [5] concerns CEM-SS cells. Kind of data set: XTT assay, direct cytotoxicity upon uninfected CEM-SS target cells. The data set is classed as cell-based, human.
From the text: as §1

In data set [6] the test system is HIV-1. The note with it: for EC50: read-out: EC50 μM (±S.D.) p24, quadruplicate tests, supernatant viral core protein.
Data set [7] relates to HIV. The settings on record: in most patients; cited from earlier work.
For data set [8], the system named is HIV-1. Kind of data set: microbe, parasite or virus in culture. The note with it: Human immunodeficiency virus 1, CEM-SS, read-out: EC50 μM (±S.D.) p24.
The subject of data set [9] is HIV-1. Put plainly: microbe, parasite or virus in culture. The settings on record: Human immunodeficiency virus 1, CEM-SS, read-out: EC50 μM (±S.D.) SFU.
A short description of data set [10]: XTT assay, direct cytotoxicity upon uninfected CEM-SS target cells. Type of data set: cell-based, human. The note with it: human, uninfected CEM-SS cells; FIGS. 4A-D, CEM-SS cells, 6 days.
From the text: as §1

The test system of data set [11] is HIV-1. Kind of data set: microbe, parasite or virus in culture. The note with it: Human immunodeficiency virus 1, CEM-SS, read-out: EC50 μM (±S.D.) RT.
Setting [12] is: read-out: EC50 μM (± SD) BCECF, quadruplicate tests, HIV-1 strain RF, CEM-SS.
[13] abbreviates: read-out: EC50 μM (± SD) XXT, quadruplicate tests, HIV-1 strain RF, CEM-SS.
The mark [14] stands for this setting: quadruplicate tests, cytotoxicity to CEM-SS, read-out: IC50 μM (± SD) XXT.
[15] abbreviates: primary screening assay, HIV-1 in CEM-SS cells.
Setting [16] is: primary screening assay, cytotoxicity to CEM-SS cells, read-out: IC50.
Where [17] appears, read: HIV-1-infected CEM-SS, FIG. 4D, result in words.

Read-outs that look alike come from different tables or passages of the source.

Consider `CCCc1cc(=O)oc2c3c(c4c(c12)OC(C)(C)C=C4)O[C@@H](C)[C@H](C)[C@@H]3O` [Costatolide, costatolide], for which the figures for the 50% inhibitory concentration (IC50) in [1] and in data set [5] (setting [14]) were 8 µM and 10 µM, respectively. Moreover, the “antiviral potency relative to calanolide A” value in data set [2] (HIV-1 strain RF, CEM-SS) is given as “about ⅔”. The EC50 (as a rule, the concentration needed to bring the measured effect to its halfway point) amounted to 0.2 µM in data set [2] (setting [12]); 0.23 µM in [2] (setting [13]); 0.12 µM in [3]; 0.14 µM in data set [4]; 0.11 µM in [6].

On to `Nc1ccn([C@H]2CC[C@@H](CO)O2)c(=O)n1` [ddC, 2′,3′-dideoxycytidine], for which, in data set [7], the “virustatic range, dose” value is 0.005-0.25 mg/kg body weight.

Consider calanolide B, for which the “anti-HIV activity in the primary screening assay” value (from here on “anti-HIV activity”) in data set [2] (HIV-1 in CEM-SS cells) was “complete inhibition”. For the same compound, in [2], the “inhibition of the cytopathic effects of HIV-1 upon CEM-SS cells” value is given as “complete protection”. In data set [2] (setting [15]), this compound returned an EC50 of 0.4 µM. The IC50 (usually the concentration that gives 50% inhibition) in data set [5] (setting [16]) stood at 15 µM.

With `CCCc1cc(=O)oc2c3c(c4c(c12)OC(C)(C)CC4)O[C@H](C)[C@@H](C)[C@@H]3O` [DH-calanolide A, 7,8-dihydrocalanolide A], the IC50 in data set [1] came to 18.7 µM; in data set [5] (setting [14]), 12.5 µM. Moreover, the “antiviral potency relative to calanolide A” value in data set [2] (HIV-1 strain RF, CEM-SS) is reported as “about ⅔”. Further, the EC50 came out at 0.19 µM in data set [2] (setting [12]); 0.23 µM in [2] (setting [13]); 0.13 µM in data set [3]; 0.17 µM in data set [4]; 0.12 µM in data set [6].

Regarding `CCCc1cc(=O)oc2c3c(c4c(c12)OC(C)(C)C=C4)O[C@H](C)[C@@H](C)[C@@H]3O` [calanolide A], the IC50 came to 14.3 µM in [1] (Homo sapiens) and 14.3 µM in [5] (Homo sapiens, quadruplicate tests, cytotoxicity to CEM-SS, read-out: IC50 μM (± SD) XXT). In addition, the “anti-HIV activity” value in [2] (HIV-1 in CEM-SS cells) is “complete protection”. Besides, the EC50 in data set [2] (Human immunodeficiency virus 1, CEM-SS, 144 h, read-out: EC50, inhibition of the cytopathic effects of HIV-1) was about 0.1 µM; in [2] (Human immunodeficiency virus 1, CEM-SS, read-out: EC50 μM (± SD) BCECF), 0.16 µM; in [2] (Human immunodeficiency virus 1, CEM-SS, read-out: EC50 μM (± SD) XXT) it was 0.13 µM; in [8], 0.07 µM; in data set [9], 0.08 µM; in [11] it was 0.07 µM. For the same compound, the “inhibition of the cytopathic effects of HIV-1 upon CEM-SS cells” value in [2] was “complete inhibition”. Also, the “production of RT” value in data set [3] (setting [17]) was “strikingly inhibited”. The “production of SFU” value in data set [4] (setting [17]) is “strikingly inhibited”. In addition, the IC50 at 6 days in data set [10] was about 13000 nM. For the same compound, the “production of p24” value in [6] (setting [17]) is reported as “strikingly inhibited”.

With `CCCc1cc(=O)oc2c3c(c4c(c12)OC(C)(C)C=C4)O[C@H](C)[C@@H](C)[C@H]3OC` [12-methoxycalanolide B], the “anti-HIV activity” value in data set [2] (HIV-1 in CEM-SS cells) is listed as “weak but detectable”.

As for `CCCc1cc(=O)oc2c3c(c4c(c12)OC(C)(C)CC4)O[C@@H](C)[C@H](C)[C@@H]3O` [DH-costatolide, 7,8-dihydrocostatolide], the IC50 is 10.3 µM in [1] and 18.7 µM in data set [5] (setting [14]). Also, in data set [2] (HIV-1 strain RF, CEM-SS), the “antiviral potency relative to calanolide A” value is given as “about ⅓”. Besides, the EC50 in [2] (setting [12]) stood at 0.31 µM; in data set [2] (setting [13]) it was 0.3 µM; in [3], 0.25 µM; in data set [4], 0.19 µM; in [6], 0.24 µM.

Regarding `CCCc1cc(=O)oc2c3c(c4c(c12)OC(C)(C)C=C4)O[C@H](C)[C@@H](C)[C@@H]3OC` [12-methoxycalanolide A], in data set [2] (HIV-1 in CEM-SS cells), the “anti-HIV activity” value is “not detectable”.

For the compound `CCCc1cc(=O)oc2c3c(c4c(c12)OC(C)(C)C=C4)OC(C)C(C)C3O` (stereo not shown) [Compound 6], in [2] (HIV-1 in CEM-SS cells), the “anti-HIV activity” value is recorded as “weak but detectable”.

Take `CCCc1cc(=O)oc2c3c(c4c(c12)OC(C)(C)C=C4)O[C@H](C)[C@@H](C)[C@@H]3OC(C)=O` [12-acetoxycalanolide A]: the “anti-HIV activity” value in [2] (HIV-1 in CEM-SS cells) is “active”. Besides, the 50% effective concentration (EC50) in data set [2] (setting [15]) amounted to 2.7 µM. The IC50 in data set [5] (setting [16]) was found to be 13 µM.

Values taken from patent publication US6774141B1, “Calanolide and related antiviral compounds, compositions, and uses thereof” (The United States of America as represented by the …, priority 1992, dated 2004).
